This is an account of results in patent publication US20060235222A1, “Indole-derivative modulators of steroid hormone nuclear receptors” (ELI LILLY AND COMPANY, priority 2003, published 2006).

The target of one experiment is T1, human MR (Homo sapiens, UniProt P08235).
T1 construct: The full length human MR gene is cloned from a human kidney or human brain cDNA library; inferred from own knowledge of the pAcHLT vector (N); made in house; host or cells: Sf9 insect cells (baculovirus)
T1 sequence (P08235 1-984): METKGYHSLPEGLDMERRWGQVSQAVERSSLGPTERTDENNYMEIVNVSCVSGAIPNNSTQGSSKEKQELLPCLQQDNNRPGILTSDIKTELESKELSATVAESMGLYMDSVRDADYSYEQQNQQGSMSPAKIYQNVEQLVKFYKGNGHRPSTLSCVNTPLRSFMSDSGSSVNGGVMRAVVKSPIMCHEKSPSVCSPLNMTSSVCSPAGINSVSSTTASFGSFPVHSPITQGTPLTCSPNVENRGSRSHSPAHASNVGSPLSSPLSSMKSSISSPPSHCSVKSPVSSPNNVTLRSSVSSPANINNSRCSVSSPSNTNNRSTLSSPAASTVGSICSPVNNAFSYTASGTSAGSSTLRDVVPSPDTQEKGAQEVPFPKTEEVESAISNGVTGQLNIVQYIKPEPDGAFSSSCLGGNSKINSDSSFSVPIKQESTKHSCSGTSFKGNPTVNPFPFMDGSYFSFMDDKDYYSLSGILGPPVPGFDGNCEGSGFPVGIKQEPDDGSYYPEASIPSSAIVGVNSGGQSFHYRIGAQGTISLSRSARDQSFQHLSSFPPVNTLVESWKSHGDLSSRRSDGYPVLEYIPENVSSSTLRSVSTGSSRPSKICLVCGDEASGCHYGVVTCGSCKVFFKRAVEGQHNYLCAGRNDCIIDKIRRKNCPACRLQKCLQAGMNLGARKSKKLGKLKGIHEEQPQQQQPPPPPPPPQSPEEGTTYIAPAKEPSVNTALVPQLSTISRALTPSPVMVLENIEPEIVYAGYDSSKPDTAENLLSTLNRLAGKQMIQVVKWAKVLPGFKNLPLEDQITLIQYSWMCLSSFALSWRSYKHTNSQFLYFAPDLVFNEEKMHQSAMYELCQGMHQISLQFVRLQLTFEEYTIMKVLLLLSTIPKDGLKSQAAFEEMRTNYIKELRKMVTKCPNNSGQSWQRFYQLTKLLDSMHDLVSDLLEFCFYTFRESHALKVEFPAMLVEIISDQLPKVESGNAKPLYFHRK
In words: Mineralocorticoid Receptor Binding Assay (Method 1), [3H]-aldosterone competition. As to conditions: 0.5 nM [3H]-aldosterone, human MR expressed in Sf9 cells. The method, boiled down: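 Full-length human MR expressed in Sf9 cells via baculovirus; lysate supernatant (about 20-25 μg protein) incubated with 0.5 nM [3H]-aldosterone and test compound for about 16 h at 4° C. Buffer was Tris/molybdate/phosphate/pyrophosphate with 10% glycerol, pH 7.5; filter-bound complex counted by scintillation.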

For another experiment, the target named is T2, glucocorticoid receptor (Homo sapiens, UniProt P04150).
T2 construct: containing 50-200 ug of A549 cell extract and 1.86 nM; host or cells: A549 human lung epithelial cells
T2 sequence (P04150 1-777): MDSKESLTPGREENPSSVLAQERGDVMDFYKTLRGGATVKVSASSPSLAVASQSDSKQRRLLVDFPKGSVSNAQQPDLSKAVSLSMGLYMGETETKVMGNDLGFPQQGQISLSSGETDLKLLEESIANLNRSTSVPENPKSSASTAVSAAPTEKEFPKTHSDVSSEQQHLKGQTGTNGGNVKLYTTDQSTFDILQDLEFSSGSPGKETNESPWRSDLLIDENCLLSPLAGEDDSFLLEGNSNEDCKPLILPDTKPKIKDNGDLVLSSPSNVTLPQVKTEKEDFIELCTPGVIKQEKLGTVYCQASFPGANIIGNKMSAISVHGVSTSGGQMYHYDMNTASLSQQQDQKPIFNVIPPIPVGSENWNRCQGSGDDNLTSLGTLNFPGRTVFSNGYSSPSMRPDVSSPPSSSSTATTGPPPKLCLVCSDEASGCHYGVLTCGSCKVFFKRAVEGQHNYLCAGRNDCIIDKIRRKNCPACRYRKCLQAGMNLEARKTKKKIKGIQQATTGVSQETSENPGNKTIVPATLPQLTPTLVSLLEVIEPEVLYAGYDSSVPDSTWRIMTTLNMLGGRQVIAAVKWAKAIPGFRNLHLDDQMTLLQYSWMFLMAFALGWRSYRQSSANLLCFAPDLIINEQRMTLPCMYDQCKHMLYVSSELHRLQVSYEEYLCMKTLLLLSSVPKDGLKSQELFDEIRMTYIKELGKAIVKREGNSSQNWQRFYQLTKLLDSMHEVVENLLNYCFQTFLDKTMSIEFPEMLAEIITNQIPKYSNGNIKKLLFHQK
In words: Glucocorticoid Receptor Binding Assay (Method 1), [3H]-dexamethasone competition, A549 cell extract. As to conditions: 1.86 nM [3H]-dexamethasone, read-out: GR Ki (nM) Method 1. The method, boiled down: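 Receptor source: sonicated extract of human A549 lung epithelial cells in glycerol/Tris-HCl pH 7.2 buffer with sodium molybdate. [3H]-dexamethasone competition run 16 h at 4 °C; unbound radioligand stripped with dextran-coated charcoal (8 min, RT) and receptor-bound radioactivity quantified by scintillation counting.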

Experiment [1] addresses T3, human GR (glucocorticoid receptor) (Homo sapiens, UniProt P04150).
T3 construct: expressed in transfected cells; host or cells: 293 cells
T3 sequence (P04150 1-777): T2 sequence (P04150 1-777)
In words: Alternative Binding Assay Protocol (Method 2), 293-GR lysate, 3H-dexamethasone competition. Conditions: 0.3 nM 3H-dexamethasone. Here is the method: Alternative Binding Assay Protocol for MR, GR, AR, and PR (Method 2):
Cell lysates from 293 cells overexpressing human GR (glucocorticoid receptor), AR (androgen receptor), MR (mineralocorticoid receptor) or PR (progesterone-receptor) are used for competition binding assays to determine Ki values for test compounds. […] Competing compounds are added at various concentraions in half-log increments. Non-specific binding is determined in the presence of 500 nM dexamethasone for GR binding, 500 nM aldosterone for MR binding, or 500 nM methyltrienolone for AR and PR binding. The binding reaction (140 μl) is incubated for overnight at 4° C., then 70 μl of cold charcoal-dextran buffer (containing per 50 ml of assay buffer, 0.75 g of charcoal and 0.25 g of dextran) is added to each reaction. Plates are mixed 8 minutes on an orbital shaker at 4° C. Plates are then centrifuged at 3,000 rpm at 4° C. for 10 minutes. An aliquot of 120 μl of the mix is transferred to another 96-well plate and 175 μl of Wallac Optiphase “Hisafe 3” scintillation fluid is added to each well. Plates are sealed and shaken vigorously on an orbital shaker. After an incubation of 2 hrs, plates are read in a Wallac Microbeta counter. […] The Kd for ^3H-dexamethasone for GR binding, ^3H-methyltrienolone for AR binding, ^3H-aldosterone for MR binding, or ^3H-methyltrienolone for PR binding, is determined by saturation binding. The IC50 values for compounds are converted to Ki using Cheng-Prusoff equation and the Kd determined by saturation binding assay.

As to `CCCC(C)(c1ccccc1)c1c[nH]c2c(NS(C)(=O)=O)cccc12` (stereo not drawn) [Example 70, N-[3-(1-Methyl-1-phenyl-butyl)-1H-indol-7-yl]-methanesulfonamide], the Ki on human MR and on glucocorticoid receptor was below 500 nM in each case.

Take `CCC(CC)(c1cccc(C)c1)c1c[nH]c2c(NS(C)(=O)=O)cccc12` [Example 71, N-[3-(1-Ethyl-1-m-tolyl-propyl)-1H-indol-7-yl]-methanesulfonamide]: the Ki at human MR and on glucocorticoid receptor was below 500 nM throughout.

With `CCC(CC)(c1cccc(F)c1)c1c[nH]c2c(NS(C)(=O)=O)cccc12` [Example 72, N-{3-[1′-Ethyl-1-(3-fluoro-phenyl)-propyl]-1H-indol-7-yl}-methanesulfonamide], the Ki on human MR and at glucocorticoid receptor was below 500 nM throughout. `CCC(C)(c1ccc(F)cc1)c1c[nH]c2c(NS(C)(=O)=O)cccc12` (stereo not drawn) [Example 73, N-{3-[1-(4-Fluoro-phenyl)-1-methyl-propyl]-1H-indol-7-yl}-methanesulfonamide]: the Ki at human MR and at glucocorticoid receptor was below 500 nM throughout.

Consider `CCC(CC)(c1ccc(F)cc1)c1c[nH]c2c([N+](=O)[O-])cccc12` [Example 75, 3-[1-Ethyl-1-(4-fluoro-phenyl)-propyl]-7-nitro-1H-indole], for which the Ki on human MR and on glucocorticoid receptor was below 500 nM each time. Take `CC(C)(c1ccc(F)cc1)c1c[nH]c2c(NS(C)(=O)=O)cccc12` [Example 76, N-{3-[1-(4-Fluoro-phenyl)-1-methyl-ethyl]-1H-indol-7-yl}-methanesulfonamide]: the Ki on human MR and on glucocorticoid receptor was below 500 nM each time. In the case of `CC(C)(c1ccccc1)c1c[nH]c2c(NS(C)(=O)=O)cccc12` [Example 78, N-[3-(1-Methyl-1-phenyl-ethyl)-1H-indol-7-yl]-methanesulfonamide], the Ki at human MR and on glucocorticoid receptor was below 500 nM each time. As to `CCC(CC)(c1ccc(F)cc1)c1c[nH]c2c(N)cccc12` [Example 79, 3-[1-Ethyl-1-(4-fluoro-phenyl)-propyl]-1H-indol-7-ylamine], the results for the Ki at human MR and at glucocorticoid receptor were below 500 nM and below 1000 nM, respectively. As for `C[C@](c1ccc(Cl)cc1)(c1c[nH]c2c(NS(C)(=O)=O)cccc12)C1CC1` [Example 164], the Ki (at human MR; in experiment [1]) was below 500 nM each time.

As for `CCC(c1ccc(F)cc1)(c1c[nH]c2c(NS(C)(=O)=O)cccc12)C1CC1` (stereo not drawn) [Example 165], the Ki (at human MR; in experiment [1]) was below 500 nM throughout. For the molecule `CC(c1ccc(Cl)cc1)(c1c[nH]c2c(NS(C)(=O)=O)cccc12)C1CC1` (stereo not drawn) [Example 167], the Ki (on human MR; in experiment [1]) was below 500 nM each time. Turning to `CC(c1ccccc1F)(c1c[nH]c2c(NS(C)(=O)=O)cccc12)C1CC1` (stereo not drawn) [Example 168], the Ki (on human MR; in experiment [1]) was below 500 nM in each case. In the case of `Cc1ccc(C(C)(c2c[nH]c3c(NS(C)(=O)=O)cccc23)C2CC2)cc1` (stereo not drawn) [Example 169], the Ki (at human MR; in experiment [1]) was below 500 nM in each case. Take `COc1ccc(C(C)(c2c[nH]c3c(NS(C)(=O)=O)cccc23)C2CC2)cc1` (stereo not drawn) [Example 170]: the Ki (at human MR; in experiment [1]) was below 500 nM throughout.

With `CCc1ccc(C(CC)(CC)c2c[nH]c3c(NS(C)(=O)=O)cccc23)cc1` [Example 171], the Ki (usually a dissociation constant, usually derived from enzyme kinetics or from competition with a known ligand) in experiment [1] was below 500 nM. Consider `C[C@](c1ccccc1F)(c1c[nH]c2c(NS(C)(=O)=O)cccc12)C1CC1` [Example 172], for which the Ki (at human MR; in experiment [1]) was below 500 nM in each case. Regarding `C[C@](c1ccc(F)cc1)(c1c[nH]c2c(NS(C)(=O)=O)cccc12)C1CC1` [Example 173], the Ki (on human MR; in experiment [1]) was below 500 nM each time.

With `C[C@@](c1ccc(Cl)cc1)(c1c[nH]c2c(NS(C)(=O)=O)cccc12)C1CC1` [Example 174], the Ki (at human MR; in experiment [1]) was below 500 nM throughout. Turning to `CC(c1ccc2c(c1)OCO2)(c1c[nH]c2c(NS(C)(=O)=O)cccc12)C1CC1` (stereo not drawn) [Example 175], the Ki (on human MR; in experiment [1]) was below 500 nM in each case. The molecule `CCCC(CCC)(c1ccc(OC)cc1)c1c[nH]c2c(NS(C)(=O)=O)cccc12` [Example 176] showed a Ki in experiment [1] below 500 nM.

Consider `CC(c1ccccc1)(c1c[nH]c2c(NS(C)(=O)=O)cccc12)C1CC1` (stereo not drawn) [Example 178], for which the Ki (at human MR; in experiment [1]) was below 500 nM throughout. Regarding `CCCC(c1ccc(F)cc1)(c1c[nH]c2c(NS(C)(=O)=O)cccc12)C1CC1` (stereo not drawn) [Example 179], the Ki (at human MR; in experiment [1]) was below 500 nM in each case. In the case of `C[C@@](c1ccccc1F)(c1c[nH]c2c(NS(C)(=O)=O)cccc12)C1CC1` [Example 180], the Ki (at human MR; in experiment [1]) was below 500 nM throughout. Regarding `CCC(CC)(c1ccc2oc(C)cc2c1)c1c[nH]c2c(NS(C)(=O)=O)cccc12` [Example 181], the Ki (at human MR; in experiment [1]) was below 500 nM throughout. Take `CCC(CC)(c1ccc(C(C)C)cc1)c1c[nH]c2c(NS(C)(=O)=O)cccc12` [Example 182]: the figures for the Ki (at human MR; in experiment [1]) were below 500 nM and below 10000 nM, respectively. In the same order, the values of `CCCCC(c1ccc(F)cc1)(c1c[nH]c2c(NS(C)(=O)=O)cccc12)C1CC1` (stereo not drawn) [Example 185] are below 500 nM and below 500 nM. Regarding `C[C@@](c1ccc(F)cc1)(c1c[nH]c2c(NS(C)(=O)=O)cccc12)C1CC1` [Example 186], the Ki (on human MR; in experiment [1]) was below 500 nM in each case. `CC(C)CC(C)(c1ccccc1)c1c[nH]c2c(NS(C)(=O)=O)cccc12` (stereo not drawn) [Example 187]: the Ki (at human MR; in experiment [1]) was below 500 nM each time.
